Laboratory results published in the supplement of paper PMC10883282.

Columns and labels:
Experiment in all cases: relative viability vs DMSO control (72 h) (fraction); higher = more viable cells
RD = test system: RD
In short: (§1)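 Densities for seeding sarcoma cell lines into 384-well plates were set to give 80–90% confluence. After 24 h, 2.5 µl of serially diluted compound from source plates of 10 mM to 0.0002 mM went in, and plates stayed 72 h at 37 °C in 5% CO2 with 0.1% DMSO vehicle and a 5 µM positive control. Percent growth from ATPLite readings, averaged over up to triplicate wells, served as relative viability, rescaled so 1 means full and 0 means none.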

VA-ES-BJ = test system: VA-ES-BJ
In short: as §1

HS729 = test system: HS729
In short: as §1

MES-SA = test system: MES-SA
In short: as §1

SK-LMS-1 = test system: SK-LMS-1
In short: as §1

Cn1ncnc1[C@H]1c2n[nH]c(=O)c3cc(F)cc(c23)N[C@@H]1c1ccc(F)cc1 [Talazoparib]
relative viability
Settings	HS729	MES-SA	RD	SK-LMS-1	VA-ES-BJ
0.00017 µM	1.05	0.972	0.904	1.01	1.01
0.00051 µM	1.05	0.975	0.945	1.05	1.01
0.00152 µM	1.03	0.945	0.923	0.999	1.01
0.00457 µM	1.02	0.901	0.869	0.999	0.955
0.01372 µM	1.02	0.768	0.842	0.982	0.926
0.04115 µM	1.03	0.678	0.789	0.956	0.849
0.1235 µM	0.961	0.555	0.72	0.9584	0.738
0.3704 µM	0.949	0.478	0.718	0.874	0.601
1.111 µM	0.895	0.392	0.629	0.833	0.406
3.333 µM	0.8536	0.351	0.586	0.795	0.225
10 µM	0.812	0.314	0.577	0.778	0.163

CCN(CC)CCNC(=O)c1c(C)[nH]c(/C=C2\C(=O)Nc3ccc(F)cc32)c1C [Sunitinib]
relative viability
Settings	HS729	MES-SA	RD	SK-LMS-1	VA-ES-BJ
0.00017 µM	0.928	0.911	1.11	1.11	1.04
0.00051 µM	0.877	0.927	1.11	1.13	1.03
0.00152 µM	0.835	0.95	1.13	1.08	1.04
0.00457 µM	0.819	0.917	1.13	1.07	1.04
0.01372 µM	0.799	0.929	1.12	1.12	1.05
0.04115 µM	0.761	0.905	1.11	1.1	1.045
0.1235 µM	0.731	0.917	1.14	1.09	1.014
0.3704 µM	0.68	0.83	1.1	1.02	0.962
1.111 µM	0.518	0.578	0.958	0.884	0.745
3.333 µM	0.268	0.305	0.0418	0.706	0.597
10 µM	0.0045	-0.00247	0.00227	0.0084	-0.00367

CC(C)(C)c1nc(-c2cccc(NS(=O)(=O)c3c(F)cccc3F)c2F)c(-c2ccnc(N)n2)s1 [Dabrafenib]
relative viability
Settings	HS729	MES-SA	RD	SK-LMS-1	VA-ES-BJ
0.00017 µM	0.958	0.944	1.07	1.07	1.02
0.00051 µM	0.949	0.921	1.07	1.06	1.02
0.00152 µM	0.867	0.908	1.07	1.05	1.06
0.00457 µM	0.85	0.905	1.11	1.02	1.05
0.01372 µM	0.84	0.909	1.12	0.964	1.07
0.04115 µM	0.844	0.883	1.1	0.84	1.02
0.1235 µM	0.774	0.733	1.1	0.7165	1.01
0.3704 µM	0.659	0.53	0.989	0.586	0.82
1.111 µM	0.63	0.504	0.915	0.607	0.646
3.333 µM	0.683	0.744	0.871	0.691	0.654
10 µM	0.811	0.745	0.846	0.557	0.5821
